Calls of active or inactive are those of the source.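 How the source made its calls: active means compounds giving half or more protection of infected cells from virus-caused growth loss, again on retest; inactive means the rest.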
System: CEM cells HIV-1 protection, formazan growth assay
Experiment: NCI AIDS Antiviral Assay
Settings: for IC50: measured here: growth of uninfected CEM cells
In short: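 Five concentrations of each compound were applied to infected and uninfected human CEM cells. Protection from HIV-1 was judged from growth measured with a soluble formazan assay.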

## O=C(Cc1nc2ccccc2[nH]1)N/N=C1\SCC(=O)N1c1ccc(Cl)cc1
  EC50: > 182 µM
  IC50: > 182 µM

## N#Cc1c(N)nc2c3c1NC(=O)C(C(N)=O)C3c1ccccc1O2 (stereo not given)
  EC50: > 200 µM
  IC50: > 200 µM

## N#C/C(=C(\N)c1ccccc1)c1ccccc1
  EC50: > 200 µM
  IC50: 97.7 µM

## O=[N+]([O-])c1ccc(N/N=C2/CC3=C2CCCCCCCCCC3)c([N+](=O)[O-])c1
  EC50: > 100 µM
  IC50: > 100 µM

## O=S1OC(c2ccccc2)(c2ccccc2)C(c2ccccc2)(c2ccccc2)O1
  EC50: > 16.2 µM
  IC50: > 16.2 µM

## O=C(OCc1ccccc1)C(Cc1ccc(OCc2ccccc2)cn1)NC(=O)C(F)(F)F (stereo not given)
  EC50: > 200 µM
  IC50: 33.1 µM

## CC1COB(c2ccccc2)OCC(C)N1CNC(=O)C1=C(O)C2(O)C(O)=C3C(=O)C4C(O)=CC=CC4C(C)(O)C3CC2C(N(C)C)C1=O (stereo not given)
  EC50: 15.1 µM
  IC50: 19.5 µM

## CCNc1nc(NC(C)C)nc(-c2ccncc2)n1
  EC50: > 200 µM
  IC50: 138 µM

## Nc1nc2c(c(=O)[nH]1)C(c1ccc(Cl)cc1)C=C(c1ccccc1)N2 (stereo not given)
  EC50: > 200 µM
  IC50: 14.1 µM

## O=C(O)c1cc(-c2ccccc2)c(-c2ccccc2)cc1C(c1ccccc1)c1ccccc1
  EC50: > 200 µM
  IC50: 28.2 µM

## CCCCOC(=O)N(CCCC)c1ccccc1
  EC50: > 200 µM
  IC50: 151 µM

## CC(C)(C)C(=O)Cc1cc2c(cc1C(=O)O)S(=O)(=O)NC(C(C)(C)C)=C2
  EC50: > 479 µM
  IC50: > 479 µM

## CC1=Nn2c(nc3sc4c(c3c2=O)CCCC4)SC1
  outcome: inactive

## CCOC(=O)C1=C(C)N(NC(N)=O)C(C)(O)C12CCOC2=O (stereo not given)
  EC50: > 794 µM
  IC50: > 794 µM

## O=[As]1(c2ccccc2)c2ccccc2Oc2ccccc21
  EC50: > 288 µM
  IC50: 141 µM

## CCOC(=O)/C(=C/c1ccc(Cl)cc1)N(CC)CC
  EC50: > 126 µM
  IC50: > 126 µM

## CC(=O)/C=C1/C(=O)C(CC(C)C)=C1CC(C)C
  EC50: 141 µM
  IC50: > 200 µM

## COc1ccc2c(c1)C1Oc3ccccc3CC1(O)CO2 (stereo not given)
  EC50: > 200 µM
  IC50: 132 µM

## Clc1cc2cc3c(Br)coc3nc2cc1Cl
  EC50: > 16.2 µM
  IC50: > 16.2 µM

## CC[C@@H]1CN2CCc3c([nH]c4ccccc34)[C@@H]2C[C@@H]1/C(=C\OC)C(=O)OC
  EC50: > 64.6 µM
  IC50: > 64.6 µM

## Cc1ccc(S(=O)(=O)N2CCC2c2ccccc2)cc1 (stereo not given)
  outcome: inactive

## COc1cc(C(=O)CC2(O)C(=O)Nc3c(Cl)cc(Cl)cc32)ccc1O (stereo not given)
  EC50: > 468 µM
  IC50: 91.2 µM

## COc1ccc(C2c3cc(OC)c(OC)cc3CC3C(=O)OCC32)cc1OC (stereo not given)
  EC50: > 200 µM
  IC50: > 200 µM

## Cn1cnc([N+](=O)[O-])c1Sc1ccccn1
  EC50: > 1050 µM
  IC50: 42.7 µM

## N#C/C=C\c1ccc(F)cc1
  EC50: > 245 µM
  IC50: > 245 µM

## O=C1/C(=C/c2ccc(O)cc2)CC/C1=C\c1ccc(O)cc1
  EC50: > 200 µM
  IC50: 31.6 µM

## COC(=O)/C(=C/c1ccc(OC)cc1)C(C(=O)O)=C(C)C
  EC50: > 871 µM
  IC50: 11.2 µM

## O=S(=O)(c1ccc(NCSc2nc3ccccc3s2)cc1)c1ccc(NCSc2nc3ccccc3s2)cc1
  EC50: > 12 µM
  IC50: > 12 µM

## CC1=NOC2(C1)/C(=N/O)CCC/C2=N\O (stereo not given)
  EC50: > 200 µM
  IC50: > 200 µM

## O=C(Nc1ccc(S(=O)(=O)c2ccc(NC(=O)c3cc(S(=O)(=O)O)ccc3O)cc2)cc1)c1cc(S(=O)(=O)O)ccc1O (tested in a mixture with another compound)
  EC50: 162 µM
  IC50: > 200 µM

## O=P(NC12CC3CC(CC(C3)C1)C2)(N1CC1)N1CC1
  outcome: inactive

## Cn1c2ccccc2n2c3ncccc3c(=S)c(C#N)c12
  EC50: > 200 µM
  IC50: > 200 µM

## O=[N+]([O-])c1ccc(Cl)cc1N/N=C/c1cccc2cccnc12
  EC50: > 200 µM
  IC50: > 200 µM

## O=C(O)Cn1c(=O)[nH]c(=O)c2[nH]cnc21
  EC50: > 1200 µM
  IC50: > 1200 µM

## O=C1CCCCCCCCCCC1CN1CCCCC1 (stereo not given)
  outcome: inactive

## CC1(C)SCc2nc3ccccc3n21
  EC50: > 200 µM
  IC50: 186 µM

## Cc1cccc(NC(=O)C(=O)C(C(=O)c2ccccc2F)C2OC(=O)c3ccccc32)c1Cl (stereo not given)
  EC50: > 204 µM
  IC50: 12 µM

## Clc1ccccc1C(c1ccccc1)(c1ccccc1)n1ccnc1
  EC50: > 200 µM
  IC50: 21.4 µM

## CCOC(=O)c1cnc2[nH]ccn2c1=O
  EC50: > 200 µM
  IC50: > 200 µM

## CC(=O)OC1=NN=C2COC(c3ccccc3OC(C)=O)=NN2C1
  EC50: > 200 µM
  IC50: 115 µM

## Oc1ccccc1-c1nc2sc(-c3ccccc3O)nc2s1
  EC50: > 200 µM
  IC50: 132 µM

## C/C(=C/CNc1ncnc2c1ncn2CCC(=O)O)CO
  EC50: > 200 µM
  IC50: > 200 µM

## CCOc1ccc(Nc2nc(N)nc(N)c2N)cc1
  EC50: > 200 µM
  IC50: 66.1 µM

## CCOc1cc2c(cc1O)C=C[C@@H]1[C@@H]2CC[C@]2(C)[C@@H](O)CC[C@@H]12
  EC50: > 2 µM
  IC50: 0.589 µM

## OCc1ccc2[n+](c1)CCC1c3ccccc3NC21 (stereo not given)
  EC50: > 77.6 µM
  IC50: > 77.6 µM

## C[C@@]1(CO[N+](=O)[O-])OC(=O)N2CCC[C@H]21
  EC50: > 1150 µM
  IC50: > 1150 µM

## OCC(CCc1ccccc1I)C1=CCC2(CC1)OCCO2 (stereo not given)
  EC50: > 200 µM
  IC50: 34.7 µM

## CC(C)CCCC(C)C1CCC2C3CC[C@H]4C[C@@H](NC(=O)C=C(c5cc(Cl)c(O)c(C(=O)O)c5)c5cc(Cl)c(O)c(C(=O)O)c5)CC[C@]4(C)C3CC[C@]12C (stereo not given in full)
  EC50: 56.2 µM
  IC50: 97.7 µM

## Nc1nc(N)c(-c2ccccc2)c(C(=O)Nc2ccc(Cl)c(Cl)c2)n1
  EC50: > 479 µM

## C#C[C@H]1CCCCCC1O (stereo not given in full)
  EC50: > 1820 µM
  IC50: 1230 µM

## O=C(CNc1nncs1)NO
  EC50: > 1450 µM
  IC50: 162 µM

## CC(=O)N=C1N(/C=C2\C(=O)Oc3ccccc3C2=O)C(=O)/C(=C/c2cccc([N+](=O)[O-])c2)N1C
  EC50: > 100 µM
  IC50: 97.7 µM

## NC(N)=N/N=C/c1oc(-c2ccc(S(=O)(=O)O)o2)c(-c2ccc(S(=O)(=O)O)o2)c1[N+](=O)[O-]
  EC50: > 513 µM
  IC50: > 513 µM

## O=Nc1ccc(O)cc1O
  EC50: > 200 µM
  IC50: 148 µM

## COc1ccc2c(OC)c3ccoc3nc2c1O
  EC50: > 50.1 µM
  IC50: 32.4 µM

## C/C(=C\C(=O)OCCCCCCCC(=O)NC1CCCNC1=O)C[C@@H]1OC[C@H](C/C=C/[C@@H](C)[C@H](C)O)[C@@H](O)[C@H]1O (stereo not given in full)
  outcome: inactive

## CC(=O)C(CN(Cc1ccccc1)Cc1ccccc1)C(c1ccccc1)c1c(O)c2ccccc2oc1=O (stereo not given)
  EC50: > 170 µM
  IC50: > 100 µM

## COC(=O)C1=C(\c2ccccc2)c2ccccc2C(=O)N(C2CCCCC2)/C=C\1
  EC50: > 200 µM
  IC50: 25.7 µM

## CC(C)(C)[Si](C)(C)OC1(CCc2ccccc2OS(=O)(=O)C(F)(F)F)CCCC=C1COCc1ccccc1 (stereo not given)
  EC50: > 200 µM
  IC50: 39.8 µM

## O=C(O)CC(NC(=O)OCc1ccccc1)C(=O)O (stereo not given)
  EC50: > 200 µM
  IC50: > 200 µM

## Cc1ccc(S(=O)(=O)OC(C=O)C(O)C(O)COC(c2ccccc2)(c2ccccc2)c2ccccc2)cc1 (stereo not given)
  EC50: > 24.5 µM
  IC50: > 24.5 µM

## c1ccc(CN2CCC3(N4CCOCC4)C(C2)N=NN3c2ccccc2)cc1 (stereo not given)
  EC50: > 200 µM
  IC50: 110 µM

## CCOC(=O)/C(C#N)=C/c1ccc(C)cc1
  EC50: > 120 µM
  IC50: > 120 µM

## CCSc1nc(C)nc2c1sc1nc3ccccc3n12
  EC50: > 100 µM
  IC50: > 100 µM

## Cc1cc(=O)n2nc(CSc3nnc(N)s3)sc2n1
  EC50: > 200 µM
  IC50: > 200 µM

## O=c1[nH]c2ncsc2c(=O)n1OS(=O)(=O)c1ccccc1
  EC50: > 200 µM
  IC50: 12.9 µM

## CCOC(=O)/C=C/c1ccccc1Br
  EC50: > 38.9 µM
  IC50: > 38.9 µM

## CC1(C)/C(=N\O)C2(C#N)CCC1C2 (stereo not given)
  EC50: > 200 µM
  IC50: 166 µM

## O=C(CCc1ccccc1)CC1OC(=O)C(Cl)=C1Cl (stereo not given)
  EC50: > 33.1 µM
  IC50: > 33.1 µM

## CN(CCN(C)CC(=O)O)CC(=O)O
  EC50: > 617 µM
  IC50: 550 µM

## [Ni+2].[O-]/C(=N\N=C/c1ccc(C(F)(F)F)cc1)c1ccncc1.[O-]/C(=N\N=C\c1ccc(C(F)(F)F)cc1)c1ccncc1
  EC50: > 100 µM
  IC50: 16.6 µM

## O=C1NC2(O)c3ccccc3C(=O)C2(O)N1c1ccccc1 (stereo not given)
  EC50: > 851 µM
  IC50: 692 µM

## COc1ccc2c(c1)CCCN1Cc3ccccc3CC21 (stereo not given)
  EC50: > 200 µM
  IC50: 141 µM

## Oc1ccccc1C=NCCSSCCN=Cc1ccccc1O
  outcome: inactive

## COc1ccc(C(=O)O/N=C2\CCCC\C2=C/c2ccccc2)cc1
  outcome: inactive

## CC(=O)C1N=Nc2nc3c(=O)n(C)c(=O)n(C)c3n2C1=O (stereo not given)
  EC50: > 200 µM
  IC50: > 200 µM

## Cc1ccc(NC(=O)CCC(=O)C2CC(=O)CC/C2=N\NC(=O)c2cc3ccccc3cc2O)cc1C (stereo not given)
  EC50: > 363 µM
  IC50: 12.9 µM

## CC(C)CNC(=O)Cn1c(-c2ccccc2)cc2ccccc21
  EC50: > 200 µM
  IC50: 195 µM

## CCOC(=O)c1sc(SSc2nc(C)c(C(=O)OCC)s2)nc1C
  EC50: > 200 µM
  IC50: > 200 µM

## CC(C)N1CCN(C(C)C)CCN(C(C)C)CC1.[O]=[Mo](=[O])=[O]
  EC50: > 100 µM
  IC50: 75.9 µM

## Cc1ccccc1[P+](Cc1ccccc1)(c1ccccc1)c1ccccc1
  EC50: > 200 µM
  IC50: 1.26 µM

## CC(C)=CCC[C@@H](C)C1=C(O)C(Nc2ccccc2)=C(C)C(=O)C1=O
  EC50: > 200 µM
  IC50: 13.2 µM

## Nc1[nH]n(-c2ccccc2)c(=O)c1/C=N/C(=S)N=Nc1c(O)[nH]c2ccccc12
  EC50: > 200 µM
  IC50: 83.2 µM

## COC(=O)n1nnc2ncccc21
  EC50: > 200 µM
  IC50: > 200 µM

## O=c1c2ccccc2ncn1O
  EC50: > 200 µM
  IC50: > 200 µM

## CC(C)(C)[Si](C)(C)OCC1OC(n2ccc(=O)[nH]c2=O)C(O[Si](C)(C)C(C)(C)C)/C1=C/C(N)=N\O (stereo not given)
  EC50: > 200 µM
  IC50: 9.12 µM

## COc1ccc(/C=C(\C(=O)OCC(C)C)c2ccc(OC)c(OC)c2)cc1OC
  EC50: > 200 µM
  IC50: 166 µM

## COc1cc(COC(=O)N2CCCCC2C(=O)O)c([N+](=O)[O-])cc1OC (stereo not given)
  EC50: > 676 µM
  IC50: 457 µM

## O=C1Nc2ccc(Cl)cc2C(=O)N2CCC[C@@H]12
  EC50: > 200 µM
  IC50: > 200 µM

From PubChem BioAssay AID179 (DTP/NCI, 2004)
